Target: human MGL from HeLa cells (Homo sapiens (Human), UniProt Q99685)
Experiment: MGL in vitro activity assay ([glycerol-1,3-3H]-oleoyl glycerol hydrolysis, activated carbon filtration)
Assay type: biochemical
Settings: 300 nM [Glycerol-1,3-3H]-oleoyl glycerol, one hour
Description: The assay used to measure the in vitro activity of MGL is adapted from the assay used for another serine hydrolase (FAAH) described in Wilson et al., 2003 (A high-throughput-compatible assay for determining the activity of fatty acid amide hydrolase. Wilson S J, Lovenberg T W, Barbier A J. Anal Biochem. 2003 Jul. 15; 318(2):270-5). The assay consists of combining endogenously expressed MGL from HeLa cells with test compounds, adding [glycerol-1,3-^3H]-oleyl glycerol, incubating for one hour, and then measuring the amount of cleaved [1,3-^3H]-glycerol that passes through an activated carbon filter. The amount of cleaved, tritiated glycerol passing through the carbon filter is proportional to the activity of the MGL enzyme in a particular well/test condition.
Standard conditions for this assay combine 300 nM [Glycerol-1,3-^3H]-oleoyl glycerol with human MGL from HeLa cells and test compounds for one hour, after which the reaction is filtered through activated carbon and tritium is measured in the flow through. The test compound concentration in screening mode is 10 μM, while the highest compound concentration in IC50 assays is determined empirically. MGL is the predominant hydrolase in HeLa cells/cell homogenates.

Chain of human MGL from HeLa cells (Q99685 whole entry): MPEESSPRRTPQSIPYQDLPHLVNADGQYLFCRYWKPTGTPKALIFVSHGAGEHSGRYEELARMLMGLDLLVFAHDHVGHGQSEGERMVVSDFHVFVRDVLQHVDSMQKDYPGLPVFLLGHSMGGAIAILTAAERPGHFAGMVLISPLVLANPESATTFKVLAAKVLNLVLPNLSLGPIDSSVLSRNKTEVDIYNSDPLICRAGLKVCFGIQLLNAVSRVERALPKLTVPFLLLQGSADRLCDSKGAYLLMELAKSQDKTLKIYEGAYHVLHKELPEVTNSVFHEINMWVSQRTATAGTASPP

Compound	IC50
C[C@]1(O)C[C@@H](C(=O)N2CCC3(CCC(c4ccc(C(F)(F)F)cc4)C3)CC2)C1 (mixture of isomers) [Example 152, (rac)-((1s,3s)-3-Hydroxy-3-methylcyclobutyl)(2-(4-(trifluoromethyl)phenyl)-8-azaspiro[4.5]decan-8-yl)methanone]	3.3 nM
C[C@]1(O)C[C@@H](C(=O)N2CC3(CCC(Cc4ccc(C(F)(F)F)cc4)C3)C2)C1 (mixture of isomers) [Example 171, (rac)-((1s,3s)-3-Hydroxy-3-methylcyclobutyl)(6-(4-(trifluoromethyl)benzyl)-2-azaspiro[3.4]octan-2-yl)methanone]	6.8 nM
C[C@]1(O)C[C@@H](C(=O)N2CC3(CCC(Cc4cccc(C(F)(F)F)c4)C3)C2)C1 (mixture of isomers) [Example 176, (rac)-((1s,3s)-3-Hydroxy-3-methylcyclobutyl)(6-(3-(trifluoromethyl)benzyl)-2-azaspiro[3.4]octan-2-yl)methanone]	11 nM
C[C@]1(O)C[C@@H](C(=O)N2CC3(CC[C@@H](Cc4ccc(OC(F)(F)F)cc4)C3)C2)C1 (racemic) [Example 179, (rac)-((1s,3s)-3-Hydroxy-3-methylcyclobutyl)(6-(4-(trifluoromethoxy)benzyl)-2-azaspiro[3.4]octan-2-yl)methanone]	5.7 nM
C[C@]1(O)C[C@@H](C(=O)N2CC3(CC[C@@H](Cc4cccc(OC(F)(F)F)c4)C3)C2)C1 (racemic) [Example 180, (rac)-((1s,3s)-3-Hydroxy-3-methylcyclobutyl)(6-(3-(trifluoromethoxy)benzyl)-2-azaspiro[3.4]octan-2-yl)methanone]	8.3 nM
C[C@]1(O)C[C@@H](C(=O)N2CC3(CCC(Cc4ccc(C(F)F)cc4)C3)C2)C1 (mixture of isomers) [Example 182, (rac)-(6-(4-(Difluoromethyl)benzyl)-2-azaspiro[3.4]octan-2-yl)((1s,3s)-3-hydroxy-3-methylcyclobutyl)methanone]	34 nM
C[C@]1(O)C[C@@H](C(=O)N2CC3(CCC(Cc4ccc(OC(F)F)cc4)C3)C2)C1 (mixture of isomers) [Example 183, (rac)-(6-(4-(Difluoromethoxy)benzyl)-2-azaspiro[3.4]octan-2-yl)((1s,3s)-3-hydroxy-3-methylcyclobutyl)methanone]	48 nM
Cc1cc(C(F)(F)F)ccc1CC1CCC2(C1)CN(C(=O)[C@H]1C[C@@](C)(O)C1)C2 (mixture of isomers) [Example 203, (rac)-((1s,3s)-3-Hydroxy-3-methylcyclobutyl)(6-(2-methyl-4-(trifluoromethyl)benzyl)-2-azaspiro[3.4]octan-2-yl)methanone]	7.8 nM
Cc1cc(CC2CCC3(C2)CN(C(=O)[C@H]2C[C@@](C)(O)C2)C3)ccc1C(F)(F)F (mixture of isomers) [Example 204, (rac)-((1s,3s)-3-Hydroxy-3-methylcyclobutyl)(6-(3-methyl-4-(trifluoromethyl)benzyl)-2-azaspiro[3.4]octan-2-yl)methanone]	3.9 nM

Continued, values first:

IC50	Compound
14 nM	C[C@]1(O)C[C@@H](C(=O)N2CC3(CCC(c4ccc(F)c(C5CC5)c4)C3)C2)C1 (mixture of isomers) [Example 108, (rac)-(6-(3-Cyclopropyl-4-fluorophenyl)-2-azaspiro[3.4]octan-2-yl)((1s,3s)-3-hydroxy-3-methylcyclobutyl)methanone]
899 nM	Cn1ncc(C2CCC3(C2)CN(C(=O)[C@H]2C[C@@](C)(O)C2)C3)c1C(F)(F)F (mixture of isomers) [Example 109, (rac)-((1s,3s)-3-Hydroxy-3-methylcyclobutyl)(6-(1-methyl-5-(trifluoromethyl)-1H-pyrazol-4-yl)-2-azaspiro[3.4]octan-2-yl)methanone]
435 nM	C[C@]1(O)C[C@@H](C(=O)N2CC3(CCC(c4cccc(C(F)(F)F)n4)C3)C2)C1 (mixture of isomers) [Example 110, (rac)-((1s,3s)-3-Hydroxy-3-methylcyclobutyl)(6-(6-(trifluoromethyl)pyridin-2-yl)-2-azaspiro[3.4]octan-2-yl)methanone]
949 nM	Cn1cnc2cc(C3CCC4(C3)CN(C(=O)[C@H]3C[C@@](C)(O)C3)C4)ccc21 (mixture of isomers) [Example 111, (rac)-((1s,3s)-3-Hydroxy-3-methylcyclobutyl)(6-(1-methyl-1H-benzo[d]imidazol-5-yl)-2-azaspiro[3.4]octan-2-yl)methanone]
5530 nM	Cn1c(C2CCC3(C2)CN(C(=O)[C@H]2C[C@@](C)(O)C2)C3)nc2ccccc21 (mixture of isomers) [Example 112, (rac)-((1s,3s)-3-Hydroxy-3-methylcyclobutyl)(6-(1-methyl-1H-benzo[d]imidazol-2-yl)-2-azaspiro[3.4]octan-2-yl)methanone]
8.3 nM	CC(C)c1cc(F)cc(C2CCC3(C2)CN(C(=O)[C@H]2C[C@@](C)(O)C2)C3)c1 (mixture of isomers) [Example 125, (rac)-(6-(3-Fluoro-5-isopropylphenyl)-2-azaspiro[3.4]octan-2-yl)((1s,3s)-3-hydroxy-3-methylcyclobutyl)methanone]
7.5 nM	CC[C@]1(O)C[C@@H](C(=O)N2CC3(CCC(c4cccc(C(C)(C)C)c4)C3)C2)C1 (mixture of isomers) [Example 126, (rac)-(6-(3-(tert-Butyl)phenyl)-2-azaspiro[3.4]octan-2-yl)((1r,3s)-3-ethyl-3-hydroxycyclobutyl)methanone]
36 nM	Cc1ccc(CC2CCC3(C2)CN(C(=O)[C@H]2C[C@@](C)(O)C2)C3)cc1 (mixture of isomers) [Example 169, (rac)-((1s,3s)-3-Hydroxy-3-methylcyclobutyl)(6-(4-methylbenzyl)-2-azaspiro[3.4]octan-2-yl)methanone]
10 nM	CC(C)c1ccc(CC2CCC3(C2)CN(C(=O)[C@H]2C[C@@](C)(O)C2)C3)cc1 (mixture of isomers) [Example 170, (rac)-((1s,3s)-3-Hydroxy-3-methylcyclobutyl)(6-(4-isopropylbenzyl)-2-azaspiro[3.4]octan-2-yl)methanone]
23 nM	Cc1cccc(CC2CCC3(C2)CN(C(=O)[C@H]2C[C@@](C)(O)C2)C3)c1 (mixture of isomers) [Example 174, (rac)-((1s,3s)-3-Hydroxy-3-methylcyclobutyl)(6-(3-methylbenzyl)-2-azaspiro[3.4]octan-2-yl)methanone]
43 nM	Cc1ccccc1CC1CCC2(C1)CN(C(=O)[C@H]1C[C@@](C)(O)C1)C2 (mixture of isomers) [Example 175, (rac)-((1s,3s)-3-Hydroxy-3-methylcyclobutyl)(6-(2-methylbenzyl)-2-azaspiro[3.4]octan-2-yl)methanone]
4.6 nM	CC(C)c1cccc(C[C@@H]2CCC3(C2)CN(C(=O)[C@H]2C[C@@](C)(O)C2)C3)c1 (racemic) [Example 181, (rac)-((1s,3s)-3-Hydroxy-3-methylcyclobutyl)(6-(3-isopropylbenzyl)-2-azaspiro[3.4]octan-2-yl)methanone]
6.9 nM	C[C@]1(O)C[C@@H](C(=O)N2CC3(CCC(Cc4ccc(C5CC5)cc4)C3)C2)C1 (mixture of isomers) [Example 200, (rac)-(6-(4-Cyclopropylbenzyl)-2-azaspiro[3.4]octan-2-yl)((1s,3s)-3-hydroxy-3-methylcyclobutyl)methanone]
9.9 nM	C[C@]1(O)C[C@@H](C(=O)N2CC3(CCC(Cc4cccc(C5CC5)c4)C3)C2)C1 (mixture of isomers) [Example 201, (rac)-(6-(3-Cyclopropylbenzyl)-2-azaspiro[3.4]octan-2-yl)((1s,3s)-3-hydroxy-3-methylcyclobutyl)methanone]

From patent publication US11802111B2, “Cyclobutyl amide monoacylglycerol lipase modulators” (Janssen Pharmaceutica NV, priority 2020, dated 2023)
